Measured values from patent publication US20260137806A1, “INTERCALATING SUGAR MOLECULES” (Xalud Therapeutics, Inc., priority 2022, published 2026).
Several values for one entry are separate records, joined by “and”; a condition that tells them apart may be missing. Equal values may be shown once.

Legend:
[1] = system: NR8383 rat alveolar macrophages; assay: Cellular delivery: pDNA uptake (ddPCR); assay type: cell-based; settings: LPS-activated NR8383; for pDNA copies per μL cell suspension: D-mannose plus pDNA
Description: The cell line used was NR8383 rat alveolar macrophages, which grow as a mixture of suspended and adherent cells. The culture medium was F-12K Medium+15% FBS. The cells were plated in a 24-well format at a seeding density of 4-6×10^5 cells/mL into the wells of a 24-well plate. All conditions were performed in duplicate. The testing conditions used NR8383 cells in both unactivated and activated states. […] Activated macrophages are characteristic of macrophages found in inflammatory disease states. […] Either 0, 1, or 2 μg pDNA was used per well, with or without mannose. The combination of pDNA minus D-mannose serves as pDNA control for all conditions. The combination of pDNA with uncomplexed Mannoquin 38 was completed by adding separate pDNA and Mannoquin 38 solutions to culture. Also, pDNA with complexed Mannoquin 38 were studied wherein pre-incubated pDNA and Mannoquin 38 solutions were added to the culture. Lipofectamine 2000 transfections per manufacturer's instructions was used as a positive control. Separate confirmation of successful transfection with Lipofectamine 2000 has been confirmed. The pDNA solution used was 40 μg/mL pDNA in PBS (herein after “Working pDNA solution”). […] For studies with no pDNA, 100 μL of 1×PBS was added to the appropriate culture wells. For plasmid-only conditions, to the appropriate culture wells, 100 μL of DNA solutions was added, wherein the solution was 50 μL of Working pDNA solution+150 μL of 1×PBS (1 μg pDNA) or 100 μL of Working pDNA solution+100 μL of 1×PBS (2 μg pDNA). For non-complexed test agent conditions, to the appropriate culture wells, 50 μL of each separately prepared solution was added: DNA solution (0, 25, or 50 μL Working pDNA solution+100, 75, or 50 μL 1×PBS, respectively) or test agent solution (25, 25, or 50 μL Test Agent Working solution+75, 75, or 50 μL 1×PBS, respectively). […] PCR reaction was performed and read according to the manufacturer's protocol.

[2] = Kinetic solubility measurements; settings: aqueous buffer, kinetic from dmso stock
DNA plasmid = assay: Quinacrine-DNA binding saturation (absorbance titration); settings: 4 mM or 8 mM phosphate/citrate buffer; FIG. 3
Description: FIG. 2 is a wavelength versus absorbance graph used to study quinacrine-DNA binding. Quinacrine concentrations were held constant under low ionic conditions (10 mM Na^+), and DNA plasmid was titrated. Absorbance was measured at 260 nm (DNA absorbance), 424 nm (quinacrine absorbance), 445 nm (quinacrine absorbance), and 461 nm (isobestic point).
FIG. 3 is a plasmid:quinacrine ratio versus absorbance graph used to study quinacrine-DNA binding saturation. The recovery of absorbance (marked with an arrow) indicates saturation. Saturation occurred at a plasmid/quinacrine ratio of 8 in 4 mM or 8 mM phosphate/citrate buffer.

## O=C[C@@H](O)[C@@H](O)[C@H](O)[C@H](O)CO [D-mannose]
[1]; 1 μg pDNA
  pDNA copies per μL cell suspension: 68 copies per μL cell suspension
[1]; 2 μg pDNA
  pDNA copies per μL cell suspension: 68.4 copies per μL cell suspension
[1]; agent plus pDNA, not complexed
  dose-dependency of uptake based on pDNA level: no dose-dependency

## C[C@]12CC[C@H]3[C@@H](CCC4=CC(=O)CC[C@@]43C)[C@@H]1CC[C@@H]2O [Testosterone]
[2]
  solubility at 4 h: 40 µM and 12 µg/mL

## CCN(CC)CCCC(C)Nc1c2ccc(Cl)cc2nc2ccc(OC)cc12 (centres unmarked) [quinacrine]
DNA plasmid
  plasmid/quinacrine ratio at saturation: 8
